One assay has as its target P1 receptors. To be noted: cited from earlier work.
The target in another assay is T1, P2X7R (Homo sapiens, UniProt Q99572).
T1 sequence (Q99572 1-595): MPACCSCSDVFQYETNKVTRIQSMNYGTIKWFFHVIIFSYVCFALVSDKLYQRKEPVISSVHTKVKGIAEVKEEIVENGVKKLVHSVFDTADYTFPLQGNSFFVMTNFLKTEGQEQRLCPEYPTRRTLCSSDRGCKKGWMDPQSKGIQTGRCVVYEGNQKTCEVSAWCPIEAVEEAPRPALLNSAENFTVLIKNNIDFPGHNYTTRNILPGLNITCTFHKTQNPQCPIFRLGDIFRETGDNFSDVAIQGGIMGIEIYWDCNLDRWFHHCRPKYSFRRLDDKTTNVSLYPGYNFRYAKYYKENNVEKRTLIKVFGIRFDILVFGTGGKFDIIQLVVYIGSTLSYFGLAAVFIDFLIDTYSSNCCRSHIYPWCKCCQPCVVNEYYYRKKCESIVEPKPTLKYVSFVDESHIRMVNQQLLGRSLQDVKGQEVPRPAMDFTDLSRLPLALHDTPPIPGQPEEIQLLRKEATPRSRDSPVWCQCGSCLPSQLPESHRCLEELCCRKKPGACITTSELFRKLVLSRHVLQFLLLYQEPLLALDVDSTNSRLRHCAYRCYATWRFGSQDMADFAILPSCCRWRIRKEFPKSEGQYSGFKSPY
To be noted: read-out: EC50 to activate P2X7R; cited from earlier work.

The subject of a further assay is Alzheimer's disease. The assay can be described thus: Example 19: Alzheimer's dementia. It is filed as in vivo, human. The note with it: sublingual 4×100 mg/d, after 3 months; before 15.
A further assay has as its system diabetic polyneuropathy. The assay can be described thus: Example 23: diabetic polyneuropathy. Format: in vivo, human.
Another assay concerns myasthenia gravis. The assay can be described thus: Example 24: myasthenia gravis. The note with it: sublingual 4×100 mg/d. Format: in vivo, human. The protocol:
A person was diagnosed having myasthenia gravis. They suffered from muscle weakness of the arms and hand after physical activity. The diagnosis was confirmed with EMG and positive test for antibodies against acetylcholine receptor (AChR). They were treated with oral anticholinesterase drug (mestinon) 4×60 mg/d. […] The treatment was continued for 2 weeks.

In another assay the test system is COPD. Kind of assay: Example 25: COPD. Format: in vivo, human. The note with it: sublingual 4×100 mg/d, after 3 months; before 60%.
A further assay relates to ulcerative colitis. Kind of assay: Example 27: ulcerative colitis. Format: in vivo, human. The note with it: sublingual 4×100 mg/d, after 3 days.
For assay [1], the system named is inflammatory bowel disease with perianal fistulae. Kind of assay: Example 28: inflammatory bowel disease with perianal fistulae. It is filed as in vivo. The note with it: dog, 4×100 mg/d applied into the largest fistula, after 1 week.
A further assay deals with ischaemic cardiomyopathy. The assay can be described thus: Example 31: ischaemic cardiomyopathy. Format: in vivo, human.
In another assay the test system is acute lumbago. Kind of assay: Example 32: acute lumbago. Format: in vivo, human. The note with it: sublingual 4×100 mg/d, after 30 minutes.
In a further assay the test system is SLE peritonitis. The assay can be described thus: Example 33: systemic lupus erythematosus. Format: in vivo, human.
For assay [2], the system named is idiopathic Parkinson's disease. The note with it: sublingual 4×100 mg/d, after 1 month.

The structures appear in SMILES notation.

As to `Nc1ncnc2c1ncn2[C@@H]1O[C@H](CO)[C@@H](O)[C@H]1O` [adenosine], the “EC50 (extracellular concentration for half maximal effect)” value at P1 receptors was “nanomolar range”.

Turning to `Nc1ncnc2c1ncn2[C@@H]1O[C@H](COP(=O)(O)OP(=O)(O)OP(=O)(O)O)[C@@H](O)[C@H]1O` [ATP], the EC50 at P2X7R is above 1000 µM.

In the case of `CCN(CC)CC(=O)Nc1c(C)cccc1C` [lidocaine base, lidocaine], the “MMSE Test total score” value in the assay with Alzheimer's disease is 23. The “muscle strength of hands” value in the assay on diabetic polyneuropathy (after 3 months) is reported as “improved significantly”. The “tingling feelings in hands and feet” value in the assay on diabetic polyneuropathy (sublingual 4×100 mg/d, after a few days) is “disappeared completely”. Moreover, in the assay with myasthenia gravis, the “influenza A viral infection symptoms” value is “disappeared almost completely”; the “time to significant improvement of muscle weakness of arms and hand” value is at most 4 h. Also, the FEV1 in the assay on COPD was 84%. Moreover, in the assay with ulcerative colitis, the symptoms entry is reported as “completely disappeared”. Moreover, in [1], the “oozing opaque fluid secretion and bad odour” value is reported as “had disappeared”. The chest pain episodes entry with ischaemic cardiomyopathy (after 3 weeks) is given as “significantly diminished”. For the same molecule, the “cardiac ejection fraction (transthoracic echocardiographic)” value with ischaemic cardiomyopathy (sublingual 4×100 mg/d, after 3 months, before 31%) is recorded as 42%. The molecule further showed a symptoms disappeared in the assay with acute lumbago of 95%. The abdominal distension result with SLE peritonitis (after 2 weeks) is “disappeared completely”. Also, the clinical symptoms entry in the assay on SLE peritonitis (sublingual 4×100 mg/d) is given as “disappeared in the course of 6 days”. In assay [2], the tendency to fall entry is recorded as “gradually improved” and the tremor entry is “almost disappeared”.

For orientation: EC50 means the concentration needed to bring the measured effect to its halfway point.

These data come from patent publication US12419848B2, “Treatment of hyperinflammatory syndrome” (priority 2020, dated 2025).
